In US20070157323A1, “In vivo odorant receptor systems and their uses” (priority 2003, published 2007):

Legend:
generalist predator = conditions: volatiles released individually, Nicotiana attenuata; Kessler et al.; cited from earlier work
[1] = tested on: Oedaleus decorus asiaticus; conditions: both sexes; Chen et al.; cited from earlier work
Angaracris barabensis = conditions: both sexes; Chen et al.; cited from earlier work
V. pensylvanica = conditions: Davis et al.; MacDonald et al.; McGovern et al.; cited from earlier work
AgOr2 = target: T1, AgOr2 (Anopheles gambiae, UniProt Q8WTE6); assay: Single-unit electrophysiology of Drosophila ab3A neuron (Δhalo) expressing AgOr2; assay type: in vivo; conditions: liquid odors diluted 10^−4, solid odors 0.2 mg/ml in paraffin oil, 0.5 s pulse, FIG. 1b
T1 construct: expressed in transfected cells; host or cells: Transgenic Drosophila, ab3A olfactory receptor neuron lacking Or22a/Or22b (Δhalo), GAL4-UAS
T1 sequence (Q8WTE6 1-378): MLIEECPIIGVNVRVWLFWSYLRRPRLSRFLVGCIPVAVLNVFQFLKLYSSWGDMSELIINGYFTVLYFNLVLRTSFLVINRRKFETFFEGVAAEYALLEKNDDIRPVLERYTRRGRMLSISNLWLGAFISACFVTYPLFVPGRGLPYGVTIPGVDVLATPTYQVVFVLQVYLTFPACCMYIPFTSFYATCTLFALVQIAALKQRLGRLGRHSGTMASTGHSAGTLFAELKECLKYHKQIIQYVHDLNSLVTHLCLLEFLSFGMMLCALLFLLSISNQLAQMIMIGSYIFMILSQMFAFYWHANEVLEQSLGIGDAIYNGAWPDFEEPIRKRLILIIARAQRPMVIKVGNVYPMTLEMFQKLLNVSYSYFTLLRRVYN
T1 sequence (Q9VNB5 1-486 partner): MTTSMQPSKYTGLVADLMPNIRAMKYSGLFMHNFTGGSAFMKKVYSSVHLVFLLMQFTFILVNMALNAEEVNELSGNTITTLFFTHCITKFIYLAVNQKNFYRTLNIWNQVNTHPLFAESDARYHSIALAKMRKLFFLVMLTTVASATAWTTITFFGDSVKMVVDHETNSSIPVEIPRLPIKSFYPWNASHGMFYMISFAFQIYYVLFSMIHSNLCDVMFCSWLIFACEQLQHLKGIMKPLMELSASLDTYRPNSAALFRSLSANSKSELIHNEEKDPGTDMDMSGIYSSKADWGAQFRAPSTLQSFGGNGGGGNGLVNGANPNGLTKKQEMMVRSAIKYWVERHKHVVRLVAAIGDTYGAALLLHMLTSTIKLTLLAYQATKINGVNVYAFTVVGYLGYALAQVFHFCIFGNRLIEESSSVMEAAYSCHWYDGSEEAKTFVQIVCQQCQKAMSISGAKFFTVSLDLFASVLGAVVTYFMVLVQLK
Method: In summary, odorant receptors are introduced specifically into Δab3A using the GAL4/UAS system and Or22a-GAL4 is used to drive expression from a UAS-Or construct. The odorant response of the neuron (Δab3A:OrX) is assayed electrophysiologically.
To investigate the function of the A. gambiae odorant receptor genes AgOr1 and AgOr2 directly, these genes were expressed in the Drosophila olfactory receptor neuron that lacks odor response due to the deletion of its endogenous receptor genes, Or22a and Or22b using an Or22a promoter and the GAL4-UAS system.
AgOr1 and AgOr2 were expressed in the Δhalo background using the GAL4-UAS system. Specifically AgOr1 or AgOr2 was placed under the control of a UAS and expressed using the 22a-GAL4 driver so as to drive its expression in ab3A cells. […]
Action potentials of the ORNs in a sensillum were recorded by placing an electrode through the sensillum wall into contact with the lymph that bathes the dendrites. […] Recordings were analyzed offline in IGOR-Pro (WaveMetrics, Lake Oswego, Oreg.).
Odor stimuli were presented from Pasteur pipettes holding solutions of chemicals in paraffin oil on filter paper. […] Responses of the ab3A neurons were quantified by subtracting the number of impulses (i.e., spikes) in 500 ms of spontaneous activity from the number in the 500 ms after the onset of odor stimulation (FIG. 1).

[2] = tested on: Rhagoletis pomonella flies; conditions: Nojima et al.; cited from earlier work
Apol PBP3 = conditions: 3H-labeled ligand; cited from earlier work
Apol PBP1a = conditions: 3H-labeled ligand; cited from earlier work
Aper PBP1 = conditions: cited from earlier work
Aper PBP2 = target: T2, Aper PBP2 (Antheraea pernyi, UniProt Q17078); conditions: cited from earlier work
T2 construct: from tissue; host or cells: Sensory hair homogenates of A. pernyi (study quoted from the literature)
T2 sequence (Q17078 23-164): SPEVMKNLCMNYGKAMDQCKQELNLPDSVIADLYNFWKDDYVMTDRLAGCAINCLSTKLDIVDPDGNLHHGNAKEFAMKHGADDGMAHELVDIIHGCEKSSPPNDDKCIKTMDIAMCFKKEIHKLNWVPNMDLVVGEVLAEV

ab3A neuron = conditions: cited from earlier work; for strongest responses of the A neuron: sensilla expressing Or22a and Or22b
B neuron = conditions: sensilla expressing Or22a and Or22b; cited from earlier work
lepidopteran = conditions: Nicotiana attenuata; Kessler et al.; cited from earlier work

For CC(C)=CCC[C@]1(C)[C@H]2CC=C(C)[C@@H]1C2 (relative stereo) [cis-alpha-bergamotene], the “egg predation rates by a generalist predator” value (“egg predation rates” for short) (generalist predator) is listed as “increased egg predation rates”.

In the case of CCCCCCCO [1-heptanol], the EAG responses [1] is given as “Strong EAG responses” and the EAG responses (Angaracris barabensis) is given as “Strong EAG responses”.

For CCCCCCO [1-hexanol], the EAG responses [1] is given as “Strong EAG responses” and the EAG responses (Angaracris barabensis) is given as “Strong EAG responses”.

In the case of CC=CC=CCOC(=O)CCC [2,4-Hexadienyl butyrate], the “attraction of V. pensylvanica” value (V. pensylvanica) is given as “attract”.

For CC=CC=CCOC(=O)C(C)C [2,4-hexadienyl isobutyrate], the “attraction of V. pensylvanica” value (V. pensylvanica) is listed as “attract”.

In the case of CC=CC=CCOC(=O)CC [2,4-hexadienyl propionate], the “attraction of V. pensylvanica” value (V. pensylvanica) is listed as “attract”.

With Cc1ccccc1O [2-methylphenol] the “odor response conferred by AgOr2” value (AgOr2) was “strong response”.

For CC(C)CCO [3-methylbutan-1-ol], the EAD activity [2] is listed as “Consistent EAD activity”.

For C=C/C=C(\C)CCC=C(C)C [4,8-dimethyl-1,3(E),7-nonatriene], the EAD activity [2] is listed as “Consistent EAD activity”.

In the case of CCCC/C=C\CCC/C=C/CCCCCOC(C)=O [AC1, (E,Z)-6,11-hexadecadienyl acetate], the “binding to Apol PBP3” value (Apol PBP3) is listed as “bound”, the “binding to Apol PBP1a” value (Apol PBP1a) is listed as “bound” and the “binding affinity to Aper PBP1” value (Aper PBP1) is listed as “showed binding affinity”.

In the case of CCCC/C=C\CCC/C=C/CCCCC=O [ALD, (E,Z)-6,11-hexadecadienal], the “binding affinity to Aper PBP2” value (Aper PBP2) is listed as “showed binding affinity”, the “binding to Apol PBP3” value (Apol PBP3) is listed as “no binding” and the “binding to Apol PBP1a” value (Apol PBP1a) is listed as “no binding”.

For CCC/C=C/C=O [E-2-hexen-1-al], the EAG responses [1] is given as “Strong EAG responses” and the EAG responses (Angaracris barabensis) is given as “Strong EAG responses”.

In the case of CCC/C=C/CO [E-2-hexen-1-ol], the EAG responses [1] is listed as “Strong EAG responses” and the EAG responses (Angaracris barabensis) is listed as “Strong EAG responses”.

For CC/C=C/CCO [E-hexen-3-ol-1], the EAG responses [1] is given as “Strong EAG responses” and the EAG responses (Angaracris barabensis) is given as “Strong EAG responses”.

For CCC/C=C\CO [Z-hexen-2-ol-1], the EAG responses [1] is listed as “Strong EAG responses” and the EAG responses (Angaracris barabensis) is listed as “Strong EAG responses”.

For CC/C=C\CCOC(C)=O [Z-hexen-3-yl acetate], the EAG responses [1] is given as “Strong EAG responses” and the EAG responses (Angaracris barabensis) is given as “Strong EAG responses”.

For CCCCCC(=O)OCCCC [butyl hexanoate], the EAD activity [2] is listed as “Consistent EAD activity”.

For CC/C=C\CCO [cis-3-hexen-1-ol], the “egg predation rates” value (generalist predator) is given as “increased egg predation rates”.

For CC(=O)CCC1=C(C)CCCC1(C)C [dihydro-beta-ionone], the EAD activity [2] is listed as “Consistent EAD activity”.

In the case of CCOC(C)=O [ethyl acetate], the EAD activity [2] is given as “Consistent EAD activity” and the “strongest responses of the A neuron” value (ab3A neuron) is given as “strongest responses”.

For CCCC(=O)OCC [ethyl butyrate], the “sensitivity of ab3A” value (ab3A neuron; in vivo) is listed as “highly sensitive” and the “strongest responses of the A neuron” value (ab3A neuron) is listed as “strongest responses”.

In the case of CCCCCC(C)=O [heptanone], the “strongest responses of the B neuron” value (B neuron) is listed as “strongest responses”.

For CCCCCCCOC(=O)CCC [heptyl butyrate], the “attraction of V. pensylvanica” value (V. pensylvanica) is given as “attract”.

For CCCCCCO [hexanol], the “strongest responses of the B neuron” value (B neuron) is given as “strongest responses”.

For CC(=O)OCCC(C)C [isoamyl acetate], the EAD activity [2] is given as “Consistent EAD activity”.

For C=CC(C)(O)CCC=C(C)C (stereo not shown) [linalool], the lepidopteran oviposition rates (lepidopteran) is listed as “decreased lepidopteran oviposition rates” and the “egg predation rates” value (generalist predator) is listed as “increased egg predation rates”.

For C=CC(O)CCCCC (stereo not shown) [octenol], the “strongest responses of the B neuron” value (B neuron) is listed as “strongest responses”.

For CCCCCCCCOC(=O)CCC [octyl butyrate], the “attraction of V. pensylvanica” value (V. pensylvanica) is listed as “attract”.

In the case of CCCCCOC(C)=O [pentyl acetate], the “strongest responses of the A neuron” value (ab3A neuron) is given as “strongest responses”.
